Reference: EP4810052A2, “HCRHR2 SELECTIVE POLYPEPTIDES” (Gubra A/S, priority 2023, dated 2026)
Starred links: 1 amine or outer side, 2 acyl side, 3 side chain; linkers in the order of their positions; H or OH if unused. Residues, ends and D or L forms follow the SMILES beside them. Groups on a side chain read outwards from the residue. *: point of attachment. C20 diacid = O=C(O)CCCCCCCCCCCCCCCCCCC(=O)*; γGlu = O=C(O)[C@H](CCC(=O)[*:2])N[*:1]; AEEA = NCCOCCOCC(=O)O

Test: Subchronic unilateral ischemia-reperfusion injury (uIRI) in mice
Format: in vivo
Conditions: for BW at termination / Kidney weight at termination: ± SEM
Text: Male C57BL/6jRj mice were obtained from JanVier (JanVier Labs, France) at 10 weeks of age. The animals were single-housed in Individually Ventilated Cages (IVC from Tecniplast, Typ I SL cage) with free access to water, food and encrichments. Animals were allowed to acclimatize for 7 days prior to study start. After acclimatization, animals were randomized into groups based on body weight; 1) Sham, 2) uIRI - Vehicle, 3) uIRI -SEQ ID NO: 3, 30 nmol/kg and 4) uIRI -SEQ ID NO: 3, 100 nmol/kg.
On study day 0, unilateral ischemia-reperfusion injury (uIRI, 25 min of occlusion followed by reperfusion) was performed on study group 2 - 4 (followed by uninephrectomy (UNx) on study day 6. Animals were subcutaneously dosed once daily starting prior to IRI surgery and until study day 7, where animals were terminated. Here plasma was collected, and the remaining kidney weighed and sampled for histological analysis. Kidneys were stained, analyzed and quantified using the following markers: collagen type-1 (col1a1), F4/80 and KIM-1.

[1] = 100 nmol/kg, compared to uIRI vehicle

**Q.** For `CC[C@H](C)[C@H](N)C(=O)N[C@H](C(=O)N[C@@H](CC(C)C)C(=O)N[C@@H](CO)C(=O)N[C@@H](CC(C)C)C(=O)N[C@@H](CC(=O)O)C(=O)N[C@H](C(=O)N1CCC[C@H]1C(=O)N[C@H](C(=O)NCC(=O)N[C@@H](CC(C)C)C(=O)N[C@@H](CC(C)C)C(=O)N[C@@H](CCC(N)=O)C(=O)N[C@H](C(=O)N[C@@H](CC(C)C)C(=O)N[C@@H](CC(C)C)C(=O)N[C@@H](CCC(=O)O)C(=O)N[C@@H](CCC(N)=O)C(=O)N[C@@H](C)C(=O)N[C@@H](CCCNC(=N)N)C(=O)N[C@@H](C)C(=O)N[C@@H](CCCNC(=N)N)C(=O)N[C@@H](C)C(=O)N[C@@H](C)C(=O)N[C@@H](CCCNC(=N)N)C(=O)N[C@@H](CCC(=O)O)C(=O)N[C@@H](CCC(N)=O)C(=O)N[C@@H](C)C(=O)N[C@@H](CCCCNC(=O)COCCOCCNC(=O)COCCOCCNC(=O)CC[C@H](NC(=O)CC[C@H](NC(=O)CCCCCCCCCCCCCCCCCCC(=O)O)C(=O)O)C(=O)O)C(=O)N[C@H](C(=O)N[C@@H](CC(N)=O)C(=O)N[C@@H](C)C(=O)N[C@@H](CCC(=O)O)C(=O)N[C@H](C(=O)N[C@@H](CC(C)C)C(=O)N[C@@H](C)C(=O)N[C@@H](CCC(=O)O)C(=O)N[C@H](C(N)=O)C(C)C)[C@@H](C)CC)[C@@H](C)O)[C@@H](C)CC)[C@@H](C)CC)C(C)C)C(C)C` [SEQ ID NO: 3] (H-IVLSLDVPIGLLQILLEQARARAAREQAK([AEEA-AEEA-γGlu-γGlu-C20 diacid])TNAEILAEV-NH2), which “Renal fibrosis, Col1a1” value (30 nmol/kg) is on record?
**A.** 34.3 ± 2.3 fractional area %

**Q.** And the “Renal inflammation, F4/80” value (30 nmol/kg)?
**A.** 7.3 ± 0.6 fractional area %

**Q.** And the “Renal injury, KIM-1” value (30 nmol/kg)?
**A.** 7.48 ± 0.49 fractional area %

**Q.** And the Serum creatinine (30 nmol/kg)?
**A.** 1.83 ± 0.004 mg/dL

**Q.** What about the Serum urea (30 nmol/kg) of the same compound?
**A.** 463.0 ± 10.5 mg/dL

**Q.** What about the BW at termination (30 nmol/kg) of the same compound?
**A.** 24.4 ± 0.5 g

**Q.** And the “Kidney weight at termination” value (30 nmol/kg)?
**A.** 0.16 ± 0.005 g

**Q.** And the “Renal fibrosis, Col1a1” value (100 nmol/kg)?
**A.** 26.4 ± 1.4 fractional area %

**Q.** And the “Renal inflammation, F4/80” value (100 nmol/kg)?
**A.** 2.5 ± 0.6 fractional area %

**Q.** And the “Renal injury, KIM-1” value (100 nmol/kg)?
**A.** 6.00 ± 0.50 fractional area %

**Q.** What about the Serum creatinine (100 nmol/kg) of the same compound?
**A.** 1.17 ± 0.13 mg/dL

**Q.** What about the Serum urea (100 nmol/kg) of the same compound?
**A.** 433 ± 22.5 mg/dL

**Q.** And the kidney fibrosis [1]?
**A.** reduced

**Q.** And the kidney inflammation [1]?
**A.** reduced

**Q.** What about the “serum levels of creatinine” value [1] of the same compound?
**A.** reduced

**Q.** And the BW at termination (100 nmol/kg)?
**A.** 21.8 ± 0.4 g

**Q.** And the “Kidney weight at termination” value (100 nmol/kg)?
**A.** 0.16 ± 0.006 g
